Laboratory results from the supplement of paper PMC4862054.

Columns and labels:
Assay in all cases: normalised response (% of control), CellTox Green; higher = less cell death (100 = DMSO, 0 = benzethonium chloride kill control)
Conditions in all cases: incubation time: 72 h
[1] = system: DU-4475
Procedure, shortened: (§1)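 Values are normalised signals, each belonging to one concentration of the series. Breast cancer cells (20 µl suspension) were seeded into 384-well plates with compound at 5 concentrations in 10-fold steps over a compound-specific 10,000-fold range and incubated 72 h. Readouts were CellTox Green fluorescence (485/520 nm), then CellTiter-Glo luminescence after 10 min at room temperature, with each plate set to 0.1 % DMSO as 100 and a positive kill control as 0.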

[2] = system: Hs578T
Procedure, shortened: as §1

[3] = system: MDA-MB-468
Procedure, shortened: as §1

[4] = system: HCC1937
Procedure, shortened: as §1

[5] = system: MFM-223
Procedure, shortened: as §1

[6] = system: HDQ-P1
Procedure, shortened: as §1

[7] = system: CAL-51
Procedure, shortened: as §1

[8] = system: CAL-120
Procedure, shortened: as §1

[9] = system: BT-549
Procedure, shortened: as §1

[10] = system: MCF-10A
Procedure, shortened: as §1

[11] = system: MDA-MB-231
Procedure, shortened: as §1

[12] = system: HCC1143
Procedure, shortened: as §1

[13] = system: MDA-MB-436
Procedure, shortened: as §1

[14] = system: MDA-MB-453
Procedure, shortened: as §1

[15] = system: CAL-85-1
Procedure, shortened: as §1

[16] = system: HCC1599
Procedure, shortened: as §1

[17] = system: CAL-148
Procedure, shortened: as §1

[18] = system: BT-474
Procedure, shortened: as §1

SMILES	normalised response [1]	normalised response [2]	normalised response [3]	normalised response [4]	normalised response [5]	normalised response [6]	normalised response [7]	normalised response [8]	normalised response [9]	normalised response [10]	normalised response [11]	normalised response [12]	normalised response [13]	normalised response [14]	normalised response [15]	normalised response [16]	normalised response [17]	normalised response [18]
CN(C)c1nc(N(C)C)nc(N(C)C)n1 [Altretamine] (10000 nM)	98.3%	112%	152%	104%	96.6%	94.3%	109%	102%	97.2%	102%	112%	109%	97.5%	105%	87.6%	103%	91%	102%
Cc1ccc(NC(=O)c2ccc(CN3CCN(C)CC3)cc2)cc1Nc1nc(-c2cccnc2)cs1 [Masitinib] (10000 nM)	100%	70.7%	37%	88.7%	96.5%	106%	74.2%	78.5%	109%	90.8%	-12.8%	96.5%	31.8%	87.1%	76.8%	67.6%	101%	53.3%
CC(C)C[C@@H](C(=O)N[C@H](C(=O)OC1CCCC1)c1ccccc1)[C@H](O)C(=O)NO [Tosedostat] (1000 nM)	101%	89%	33.4%	90.1%	31.9%	57.9%	52.9%	39.9%	70.1%	80.4%	14.7%	105%	75.5%	95.1%	1.91%	90.8%	84.1%	91.7%
O=C(Nc1cccnc1)N1CCC(Cc2cccc(Oc3ccc(C(F)(F)F)cn3)c2)CC1 [PF-3845] (10000 nM)	101%	90.3%	172%	76.2%	78.1%	52.3%	108%	97.4%	111%	103%	108%	126%	101%	63.6%	69.5%	95.7%	103%	76.7%
COc1cc(OC2CCN(C)CC2)ccc1Nc1ncc2c(n1)n(C1CCCC1)c(=O)n2C [AZ 3146] (10000 nM)	90.2%	98.7%	75.5%	-6.06%	104%	86.1%	27.1%	94.6%	105%	71%	81.8%	86.7%	47.3%	105%	82.7%	53.3%	60.4%	70.2%
O=C(/C=C/c1cccc(S(=O)(=O)Nc2ccccc2)c1)NO [Belinostat] (10000 nM)	76%	37.3%	43.3%	80.3%	62.1%	76.1%	-15.2%	-14%	103%	54.6%	-5.71%	79.7%	112%	88.7%	-19.3%	93.8%	26.6%	21.2%
COc1cc2ncnc(Nc3ccc(F)c(Cl)c3)c2cc1OCCCN1CCOCC1 [Gefitinib] (10000 nM)	96.9%	102%	133%	98.2%	104%	94.9%	104%	95.4%	114%	82.9%	68.6%	113%	98.4%	79%	45.8%	96.9%	48.3%	17.4%
COCC[n+]1c2c(n(Cc3cnccn3)c1C)C(=O)c1ccccc1C2=O [YM155] (10000 nM)	68.1%	18.1%	-110%	1.09%	25.7%	25.1%	8.9%	-11.6%	8.26%	-38.3%	29.1%	62.8%	32.2%	28.4%	-73.8%	55.7%	2.48%	-15%
CNC(=O)c1cc(Oc2ccc(NC(=O)Nc3ccc(Cl)c(C(F)(F)F)c3)c(F)c2)ccn1 [Regorafenib] (10000 nM)	92.5%	109%	152%	10.5%	97.3%	111%	108%	97.2%	109%	94.5%	94.3%	120%	113%	98.3%	83.8%	106%	85.1%	82%
O=C(Nc1cccnc1)N1CCC(Cc2cccc(Oc3ccc(C(F)(F)F)cn3)c2)CC1 [PF-3845] (1000 nM)	108%	115%	132%	124%	102%	70.8%	117%	106%	107%	115%	116%	97.7%	108%	108%	106%	108%	107%	102%
O=C(Nc1ccncc1)C(=O)c1cn(Cc2ccc(Cl)cc2)c2ccccc12 [Indibulin] (1000 nM)	101%	94.6%	91.5%	68.1%	71.8%	107%	40.5%	89.4%	117%	87.2%	51.6%	93.6%	80.4%	106%	48.8%	104%	96.3%	92.1%
CO[C@H]1C[C@@H]2CC[C@@H](C)[C@@](O)(O2)C(=O)C(=O)N2CCCC[C@H]2C(=O)O[C@H]([C@H](C)C[C@@H]2CC[C@@H](OP(C)(C)=O)[C@H](OC)C2)CC(=O)[C@H](C)/C=C(\C)[C@@H](O)[C@@H](OC)C(=O)[C@H](C)C[C@H](C)/C=C/C=C/C=C/1C [Ridaforolimus] (100 nM)	100%	116%	196%	103%	102%	70.1%	102%	106%	125%	97.3%	51.6%	121%	53.1%	104%	92.7%	89.3%	85.5%	100%
c1ccc2c(CCNc3ccc(Nc4ccncc4)cc3)c[nH]c2c1 [Serdemetan] (10000 nM)	68.3%	118%	124%	102%	38.8%	88.7%	69.5%	88.8%	86.7%	89.8%	46.1%	89.7%	99.5%	95.2%	94%	82.8%	26%	56.7%
COc1cc2/c(=N/c3ccc(Br)cc3F)nc[nH]c2cc1OCC1CCN(C)CC1 [Vandetanib] (1000 nM)	96.9%	105%	128%	84.1%	95%	40.1%	96.5%	56.3%	114%	84%	80.5%	85.7%	84.6%	96.7%	117%	106%	99.8%	96.7%
CC(C)C[C@@H](C(=O)N[C@H](C(=O)OC1CCCC1)c1ccccc1)[C@H](O)C(=O)NO [Tosedostat] (10000 nM)	97.8%	89.8%	-9%	76.8%	98.5%	26%	48.5%	36.2%	-46.2%	86.8%	-8.96%	30.3%	70.6%	86.1%	-30.8%	95.4%	54.2%	66.9%
N#Cc1ccc(COC[C@H]2O[C@@H](n3c(NCc4ccc(Cl)c(Cl)c4)nc4c(N)ncnc43)[C@H](O)[C@@H]2O)cc1 (1000 nM)	103%	103%	143%	90.4%	104%	106%	119%	96.4%	123%	92.3%	114%	115%	96.5%	112%	97.6%	102%	107%	100%
COCC[n+]1c2c(n(Cc3cnccn3)c1C)C(=O)c1ccccc1C2=O [YM155] (1000 nM)	77%	92.9%	-55.5%	9.52%	55.1%	-26.1%	4.79%	-14.7%	14.8%	-47.8%	-31.1%	49.3%	-1.05%	42.2%	-94.7%	51.1%	-7.66%	-1.55%
Cc1[nH]c2ccccc2c1CCNCc1ccc(/C=C/C(=O)NO)cc1 [Panobinostat] (100 nM)	62.1%	-15.2%	82.5%	-55.9%	71.4%	90%	-3.76%	28.7%	105%	99.6%	-11.6%	71.8%	10.6%	88.3%	10.4%	75%	-4.89%	36.8%
O=C(Nc1ccncc1)C(=O)c1cn(Cc2ccc(Cl)cc2)c2ccccc12 [Indibulin] (10000 nM)	106%	76.3%	63.6%	99%	72.9%	69.6%	-2.59%	85.8%	95.4%	84%	46.3%	121%	93.6%	105%	16.7%	105%	65.3%	81.4%
